Data as given in US10206394B2, “Herbicidal compounds” (Syngenta Participations AG, priority 2014, dated 2019).
Like-named read-outs stand apart in the source and are kept apart here.

What was measured:
Assay in all cases: Glasshouse assay for herbicidal activity (pre- and post-emergence), percentage phytotoxicity
Format in all cases: in vivo
Lolium perenne (LOLPE) = conditions: Lolium perenne
Summary of the method: (§1)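 Damage was rated visually as percent phytotoxicity, 100% meaning total kill, 20 days after pre-emergence application (made one day post-sowing) or 15 days after post-emergence application (made about 12 days post-sowing). Plants were grown under 16 h light, 65% humidity, warm species 24/18° C, cool 20/16° C.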

Avena fatua (AVEFA) = conditions: Avena fatua
Summary of the method: as §1

[1] = test system: Echinochloa crus-galli (ECHCG); conditions: Echinochloa crus-galli
Summary of the method: as §1

[2] = test system: Alopecurus myosuroides (ALOMY); conditions: Alopecurus myosuroides
Summary of the method: as §1

[3] = post-emergence, 360 h, Rate 250 g/ha, post-emergence, assessed visually 15 DAA, 100%=total damage, 0%=no damage, read-out: Post-emergence herbicidal activity (percentage phytotoxicity) LOLPE POST
[4] = pre-emergence, 480 h, Rate 250 g/ha, pre-emergence, assessed visually 20 DAA, 100%=total damage, 0%=no damage, read-out: Pre-emergence herbicidal activity (percentage phytotoxicity) LOLPE PRE
[5] = post-emergence, 360 h, Rate 250 g/ha, post-emergence, assessed visually 15 DAA, 100%=total damage, 0%=no damage, read-out: Post-emergence herbicidal activity (percentage phytotoxicity) AVEFA POST
[6] = pre-emergence, 480 h, Rate 250 g/ha, pre-emergence, assessed visually 20 DAA, 100%=total damage, 0%=no damage, read-out: Pre-emergence herbicidal activity (percentage phytotoxicity) AVEFA PRE
[7] = post-emergence, 360 h, Rate 250 g/ha, post-emergence, assessed visually 15 DAA, 100%=total damage, 0%=no damage, read-out: Post-emergence herbicidal activity (percentage phytotoxicity) ECHCG POST
[8] = pre-emergence, 480 h, Rate 250 g/ha, pre-emergence, assessed visually 20 DAA, 100%=total damage, 0%=no damage, read-out: Pre-emergence herbicidal activity (percentage phytotoxicity) ECHCG PRE
[9] = post-emergence, 360 h, Rate 250 g/ha, post-emergence, assessed visually 15 DAA, 100%=total damage, 0%=no damage, read-out: Post-emergence herbicidal activity (percentage phytotoxicity) ALOMY POST
[10] = pre-emergence, 480 h, Rate 250 g/ha, pre-emergence, assessed visually 20 DAA, 100%=total damage, 0%=no damage, read-out: Pre-emergence herbicidal activity (percentage phytotoxicity) ALOMY PRE
[11] = post-emergence, 360 h, 250 g/ha, post-emergence, 15 DAA, visual assessment (100%=total damage, 0%=no damage), read-out: Post-emergence herbicidal activity (percentage phytotoxicity) LOLPE POST
[12] = pre-emergence, 480 h, 250 g/ha, pre-emergence, 20 DAA, visual assessment (100%=total damage, 0%=no damage), read-out: Pre-emergence herbicidal activity (percentage phytotoxicity) LOLPE PRE
[13] = post-emergence, 360 h, 250 g/ha, post-emergence, 15 DAA, visual assessment (100%=total damage, 0%=no damage), read-out: Post-emergence herbicidal activity (percentage phytotoxicity) AVEFA POST
[14] = pre-emergence, 480 h, 250 g/ha, pre-emergence, 20 DAA, visual assessment (100%=total damage, 0%=no damage), read-out: Pre-emergence herbicidal activity (percentage phytotoxicity) AVEFA PRE
[15] = post-emergence, 360 h, 250 g/ha, post-emergence, 15 DAA, visual assessment (100%=total damage, 0%=no damage), read-out: Post-emergence herbicidal activity (percentage phytotoxicity) ECHCG POST
[16] = pre-emergence, 480 h, 250 g/ha, pre-emergence, 20 DAA, visual assessment (100%=total damage, 0%=no damage), read-out: Pre-emergence herbicidal activity (percentage phytotoxicity) ECHCG PRE
[17] = post-emergence, 360 h, 250 g/ha, post-emergence, 15 DAA, visual assessment (100%=total damage, 0%=no damage), read-out: Post-emergence herbicidal activity (percentage phytotoxicity) ALOMY POST
[18] = pre-emergence, 480 h, 250 g/ha, pre-emergence, 20 DAA, visual assessment (100%=total damage, 0%=no damage), read-out: Pre-emergence herbicidal activity (percentage phytotoxicity) ALOMY PRE

Cc1cc(C)c(C2C(=O)CC(CC(=O)NCc3ncccc3Cl)C2=O)c(C)c1 (stereo not drawn) [Compound A107]
pest or weed control at 250 g/ha (Lolium perenne (LOLPE); [3]): 80% | pest or weed control at 250 g/ha (Lolium perenne (LOLPE); [4]): 90% | pest or weed control at 250 g/ha (Avena fatua (AVEFA); [5]): 90% | pest or weed control at 250 g/ha (Avena fatua (AVEFA); [6]): 10% | pest or weed control at 250 g/ha [1, 7]: 70% | pest or weed control at 250 g/ha [1, 8]: 80% | pest or weed control at 250 g/ha [2, 9]: 80% | pest or weed control at 250 g/ha [2, 10]: 80%

Cc1cc(-c2cc(C#N)c(F)cn2)cc(C)c1C1C(=O)CC(CC(=O)NC(C)(C)C)C1=O (stereo not drawn) [Compound B99]
pest or weed control at 250 g/ha (Lolium perenne (LOLPE); [11]): 80% | pest or weed control at 250 g/ha (Lolium perenne (LOLPE); [12]): 80% | pest or weed control at 250 g/ha (Avena fatua (AVEFA); [13]): 20% | pest or weed control at 250 g/ha (Avena fatua (AVEFA); [14]): 30% | pest or weed control at 250 g/ha [1, 15]: 80% | pest or weed control at 250 g/ha [1, 16]: 70% | pest or weed control at 250 g/ha [2, 17]: 70% | pest or weed control at 250 g/ha [2, 18]: 70%

C=C(C)CNC(=O)CC1CC(=O)C(c2c(C)cc(-c3ccc(Br)cn3)cc2C)C1=O (stereo not drawn) [Compound B298]
pest or weed control at 250 g/ha (Lolium perenne (LOLPE); post-emergence, 360 h, POST-emergence, rate 250 g/ha, visual score 15 DAA (100%=total damage, 0%=no damage), read-out: Post-emergence herbicidal activity (percentage phytotoxicity) LOLPE POST): 90% | pest or weed control at 250 g/ha (Lolium perenne (LOLPE); pre-emergence, 480 h, PRE-emergence, rate 250 g/ha, visual score 20 DAA (100%=total damage, 0%=no damage), read-out: Pre-emergence herbicidal activity (percentage phytotoxicity) LOLPE PRE): 90% | pest or weed control at 250 g/ha (Avena fatua (AVEFA); post-emergence, 360 h, POST-emergence, rate 250 g/ha, visual score 15 DAA (100%=total damage, 0%=no damage), read-out: Post-emergence herbicidal activity (percentage phytotoxicity) AVEFA POST): 100% | pest or weed control at 250 g/ha (Avena fatua (AVEFA); pre-emergence, 480 h, PRE-emergence, rate 250 g/ha, visual score 20 DAA (100%=total damage, 0%=no damage), read-out: Pre-emergence herbicidal activity (percentage phytotoxicity) AVEFA PRE): 90% | pest or weed control at 250 g/ha ([1]; post-emergence, 360 h, POST-emergence, rate 250 g/ha, visual score 15 DAA (100%=total damage, 0%=no damage), read-out: Post-emergence herbicidal activity (percentage phytotoxicity) ECHCG POST): 100% | pest or weed control at 250 g/ha ([1]; pre-emergence, 480 h, PRE-emergence, rate 250 g/ha, visual score 20 DAA (100%=total damage, 0%=no damage), read-out: Pre-emergence herbicidal activity (percentage phytotoxicity) ECHCG PRE): 100% | pest or weed control at 250 g/ha ([2]; post-emergence, 360 h, POST-emergence, rate 250 g/ha, visual score 15 DAA (100%=total damage, 0%=no damage), read-out: Post-emergence herbicidal activity (percentage phytotoxicity) ALOMY POST): 100% | pest or weed control at 250 g/ha ([2]; pre-emergence, 480 h, PRE-emergence, rate 250 g/ha, visual score 20 DAA (100%=total damage, 0%=no damage), read-out: Pre-emergence herbicidal activity (percentage phytotoxicity) ALOMY PRE): 90%

Cc1cc(C)c(C2C(=O)CC(CC(=O)NCC3CC3C(F)F)C2=O)c(C)c1 (stereo not drawn) [Compound B60]
pest or weed control at 250 g/ha (Lolium perenne (LOLPE); [11]): 80% | pest or weed control at 250 g/ha (Lolium perenne (LOLPE); [12]): 80% | pest or weed control at 250 g/ha (Avena fatua (AVEFA); [13]): 80% | pest or weed control at 250 g/ha (Avena fatua (AVEFA); [14]): 60% | pest or weed control at 250 g/ha [1, 15]: 90% | pest or weed control at 250 g/ha [1, 16]: 90% | pest or weed control at 250 g/ha [2, 17]: 80% | pest or weed control at 250 g/ha [2, 18]: 90%

Cc1cc(-c2ncccc2F)cc(C)c1C1C(=O)CC(CC(=O)NC(C)(C)C)C1=O (stereo not drawn) [Compound B84]
pest or weed control at 250 g/ha (Lolium perenne (LOLPE); [11]): 100% | pest or weed control at 250 g/ha (Lolium perenne (LOLPE); [12]): 100% | pest or weed control at 250 g/ha (Avena fatua (AVEFA); [13]): 100% | pest or weed control at 250 g/ha (Avena fatua (AVEFA); [14]): 80% | pest or weed control at 250 g/ha [1, 15]: 100% | pest or weed control at 250 g/ha [1, 16]: 100% | pest or weed control at 250 g/ha [2, 17]: 100% | pest or weed control at 250 g/ha [2, 18]: 90%

CC#Cc1cc(C)c(C2C(=O)CC(CC(=O)NC3CCC3)C2=O)c(C)c1 (stereo not drawn) [Compound A81]
pest or weed control at 250 g/ha (Lolium perenne (LOLPE); [3]): 90% | pest or weed control at 250 g/ha (Lolium perenne (LOLPE); [4]): 100% | pest or weed control at 250 g/ha (Avena fatua (AVEFA); [5]): 100% | pest or weed control at 250 g/ha (Avena fatua (AVEFA); [6]): 100% | pest or weed control at 250 g/ha [1, 7]: 100% | pest or weed control at 250 g/ha [1, 8]: 100% | pest or weed control at 250 g/ha [2, 9]: 90% | pest or weed control at 250 g/ha [2, 10]: 100%
